Ki data for four compounds are collected here from BindingDB's records for PubMed 10411588 (The University of Calgary, 1999).

Where a SMILES comes first, the peptide text is derived from it.

The assay addresses T1, Proteinase-activated receptor 2 (Rattus norvegicus, UniProt Q63645).
T1 sequence (Q63645 whole entry): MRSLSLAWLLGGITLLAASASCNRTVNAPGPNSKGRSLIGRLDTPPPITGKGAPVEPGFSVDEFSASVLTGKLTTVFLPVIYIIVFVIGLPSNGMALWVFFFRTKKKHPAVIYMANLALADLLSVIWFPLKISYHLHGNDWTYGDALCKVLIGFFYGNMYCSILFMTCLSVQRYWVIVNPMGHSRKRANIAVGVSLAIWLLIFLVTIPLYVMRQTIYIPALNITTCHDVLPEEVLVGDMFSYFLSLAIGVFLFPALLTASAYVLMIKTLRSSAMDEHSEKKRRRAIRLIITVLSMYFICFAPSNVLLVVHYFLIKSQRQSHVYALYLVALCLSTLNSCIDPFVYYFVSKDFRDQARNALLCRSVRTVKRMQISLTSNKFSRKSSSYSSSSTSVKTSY
In the case of `CC(C)C[C@H](NC(=O)[C@H](CC(C)C)NC(=O)[C@H](Cc1ccccc1)NC(=O)[C@@H](N)CO)C(=O)N[C@@H](CCCN=C(N)N)C(N)=O` [SFLLR-NH2], the Ki (usually the equilibrium dissociation constant of an inhibitor or competing ligand from its target) amounted to 2300 nM.

As to `CC[C@H](C)[C@H](NC(=O)[C@H](CC(C)C)NC(=O)[C@@H](N)CO)C(=O)NCC(=O)N[C@@H](CCCNC(=N)N)C(=O)N[C@@H](CC(C)C)C(N)=O` [CAS_171436-38-7] (H-SLIGRL-NH2), the affinity, expressed as Ki, was 260 nM.

On to `CC[C@H](C)[C@H](NC(=O)[C@H](CC(C)C)NC(=O)C=Cc1ccccc1)C(=O)NCC(=O)N[C@@H](CCCNC(=N)N)C(=O)N[C@@H](CC(C)C)C(=O)N[C@@H](CCCN)C(N)=O` [trans-cinnamoyl-LIGRLO-NH2] (HELM PEPTIDE1{[O=C(C=Cc1ccccc1)[*:2]].L.I.G.R.L.[Orn].[am]}$$$$V2.0), for which the affinity, expressed as Ki, was 260 nM.

Compound `CC(C)C[C@H](NC(=O)[C@H](CC(C)C)NC(=O)[C@H](Cc1ccccc1)NC(=O)[C@@H](N)CO)C(=O)N[C@@H](CCCN=C(N)N)C(=O)O` [SFLLR-OH] showed a Ki above 10000 nM.
